One assay has as its system Colo205 cells. The assay can be described thus: Analysis of cell proliferation and viability. To be noted: Homo sapiens, COLO 205, Colo205 cells, read-out: IC50 value. It is filed as cell-based.
The target of a further assay is T1, JAK3 (Homo sapiens, UniProt P52333).
T1 sequence (P52333 1-1124): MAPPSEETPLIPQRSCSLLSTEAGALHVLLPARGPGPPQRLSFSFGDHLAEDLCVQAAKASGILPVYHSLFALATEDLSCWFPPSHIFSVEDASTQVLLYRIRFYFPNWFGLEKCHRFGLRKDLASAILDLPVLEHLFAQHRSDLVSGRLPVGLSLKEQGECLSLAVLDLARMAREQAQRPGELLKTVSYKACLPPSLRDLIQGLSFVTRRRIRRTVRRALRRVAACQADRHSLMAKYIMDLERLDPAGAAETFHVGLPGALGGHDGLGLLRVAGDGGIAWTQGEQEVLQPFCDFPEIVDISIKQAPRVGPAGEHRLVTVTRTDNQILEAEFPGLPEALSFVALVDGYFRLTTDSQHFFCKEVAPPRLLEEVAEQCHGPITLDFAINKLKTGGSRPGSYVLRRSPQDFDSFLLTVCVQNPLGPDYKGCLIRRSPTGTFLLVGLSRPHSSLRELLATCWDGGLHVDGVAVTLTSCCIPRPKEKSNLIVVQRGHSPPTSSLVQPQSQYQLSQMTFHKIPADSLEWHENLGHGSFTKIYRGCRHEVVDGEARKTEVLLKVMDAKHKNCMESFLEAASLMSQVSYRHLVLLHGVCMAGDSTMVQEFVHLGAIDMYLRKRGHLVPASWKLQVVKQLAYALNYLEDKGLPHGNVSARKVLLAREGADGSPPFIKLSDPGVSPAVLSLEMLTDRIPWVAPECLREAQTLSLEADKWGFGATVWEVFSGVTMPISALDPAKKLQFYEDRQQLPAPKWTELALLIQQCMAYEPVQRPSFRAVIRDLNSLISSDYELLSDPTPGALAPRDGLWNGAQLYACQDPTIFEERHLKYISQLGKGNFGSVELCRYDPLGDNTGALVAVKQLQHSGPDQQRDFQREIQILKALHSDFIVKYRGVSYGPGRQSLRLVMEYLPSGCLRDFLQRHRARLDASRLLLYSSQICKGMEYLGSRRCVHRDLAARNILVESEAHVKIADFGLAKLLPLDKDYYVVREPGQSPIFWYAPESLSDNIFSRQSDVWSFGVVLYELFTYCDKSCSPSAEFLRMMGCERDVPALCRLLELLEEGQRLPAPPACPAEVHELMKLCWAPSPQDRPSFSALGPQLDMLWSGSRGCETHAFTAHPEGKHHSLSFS
The assay can be described thus: biochemical.

For a further assay, the target named is Aurora-1 (Aurora B) (Homo sapiens, UniProt Q96GD4). The assay can be described thus: Aurora-1 (Aurora B) inhibition assay (radiometric). The settings on record: read-out: Aurora B kinase Ki value. It is filed as biochemical. An outline of the steps: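 Radiometric ^33P incorporation into peptide substrate, with [γ-^33P]-ATP at 800 μM final, in 25 mM HEPES pH 7.5, 10 mM MgCl2, 0.1% BSA, 10% glycerol. Compound preincubated with enzyme for 10 min at 25° C, reaction run 3 h, then captured on phosphocellulose. Ki from initial rates by non-linear regression after background subtraction.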

The target in another assay is T2, Aurora-2 (Aurora A) (Homo sapiens, UniProt O14965).
T2 sequence (O14965 1-403): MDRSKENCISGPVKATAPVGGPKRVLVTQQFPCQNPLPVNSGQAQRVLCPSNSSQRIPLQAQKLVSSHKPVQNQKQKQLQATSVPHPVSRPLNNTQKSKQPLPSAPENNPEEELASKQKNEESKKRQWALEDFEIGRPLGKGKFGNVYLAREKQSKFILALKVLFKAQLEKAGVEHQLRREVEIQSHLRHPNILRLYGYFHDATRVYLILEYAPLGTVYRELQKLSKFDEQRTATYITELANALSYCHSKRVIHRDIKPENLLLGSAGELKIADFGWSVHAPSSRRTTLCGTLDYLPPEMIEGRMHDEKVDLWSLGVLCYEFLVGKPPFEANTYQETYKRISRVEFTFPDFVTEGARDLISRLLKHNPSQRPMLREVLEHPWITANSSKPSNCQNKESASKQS
The assay can be described thus: Aurora-2 (Aurora A) inhibition assay, coupled enzyme. The settings on record: read-out: Aurora A kinase Ki value. It is filed as biochemical. The procedure, abridged: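 Coupled pyruvate kinase/lactate dehydrogenase assay with NADH in pH 7.5 Hepes containing MgCl2, DTT and NaCl, using 40 nM Aurora-2 at 30 °C. After a 10 min preincubation, enzyme addition started the reaction, and initial rates were taken over 10 min. IC50 and Ki came from non-linear regression.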

Among the data in US8637511B2, “Aminopyrimidines useful as kinase inhibitors” (Vertex Pharmaceuticals Incorporated, priority 2005, dated 2014) are IC50 and Ki values, retold here.

SMILES strings stand for the structures. Values joined by “and” are separate entries in the source; they are usually repeats but may differ in a detail not shown here. Equal entries are not always repeated. Where two headings read alike, the source gives them in different places.

Chain of Aurora-1 (Aurora B) (Q96GD4 whole entry): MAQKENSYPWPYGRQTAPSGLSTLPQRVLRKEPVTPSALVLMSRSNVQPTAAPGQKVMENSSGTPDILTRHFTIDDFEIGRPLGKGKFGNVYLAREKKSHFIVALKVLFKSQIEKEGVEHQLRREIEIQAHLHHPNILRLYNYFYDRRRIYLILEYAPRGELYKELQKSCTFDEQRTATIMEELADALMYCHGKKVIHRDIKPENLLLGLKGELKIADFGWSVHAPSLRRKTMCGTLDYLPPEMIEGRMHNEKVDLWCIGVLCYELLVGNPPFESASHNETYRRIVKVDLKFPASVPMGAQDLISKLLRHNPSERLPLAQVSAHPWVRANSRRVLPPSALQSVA

Turning to `CCC(=O)Nc1ccc(Sc2nc(Nc3cc(C)n[nH]3)cc(N3CC(C)(N4CCOCC4)C3)n2)cc1` [Compound 88], the IC50 with Colo205 cells (incubated for 96 hours) was not above 50 nM. Also, the results for the inhibitory constant (Ki) on JAK3 (read-out: JAK3 Ki value), at Aurora-1 (Aurora B) and at Aurora-2 (Aurora A) were not above 10 nM, not above 10 nM and not above 1 nM, respectively.
With `Cc1cc(Nc2cc(N3CC(F)(C4CC4)C3)nc(Sc3ccc(NC(=O)C4(C)CC4)cc3)n2)[nH]n1` [Compound 203], in the assay on Colo205 cells (incubated for 72 hours), the 50% inhibitory concentration (IC50) is 30 to 200 nM. Besides, the Ki was 500 to 2000 nM on JAK3, 50 to 2000 nM on Aurora-1 (Aurora B) and not above 1 nM on Aurora-2 (Aurora A).
For the compound `CCC(=O)Nc1ccc(Sc2nc(Nc3cc(C)n[nH]3)cc(N3CC(N4CCOCC4)C3)n2)cc1` [Compound 68], the IC50 in the assay with Colo205 cells (incubated for 96 hours) is 50 to 1000 nM. Besides, the results for the inhibition constant Ki on JAK3, on Aurora-1 (Aurora B) and on Aurora-2 (Aurora A) were 10 to 500 nM, 50 to 2000 nM and not above 1 nM, respectively.
For the compound `Cc1cc(Nc2cc(N3CC(O)(C4CC4)C3)nc(Sc3ccc(NC(=O)C4CC4)c(F)c3)n2)[nH]n1` [Compound 109], in the assay with Colo205 cells (incubated for 96 hours), the 50% inhibitory concentration (IC50) fell in the range of 50 to 1000 nM. Besides, the Ki at JAK3 (read-out: JAK3 Ki value) was 10 to 500 nM; at Aurora-1 (Aurora B), 10 to 50 nM; at Aurora-2 (Aurora A), not above 1 nM.
Take `CCC(=O)Nc1ccc(Sc2nc(Nc3cc(C)n[nH]3)cc(N3CC(C)(N4CCCC4)C3)n2)cc1` [Compound 89]: the IC50 with Colo205 cells (incubated for 72 hours) is not above 30 nM; in the assay with Colo205 cells (incubated for 96 hours), not above 50 nM. Also, the Ki is 10 to 500 nM at JAK3, not above 10 nM on Aurora-1 (Aurora B) and not above 1 nM on Aurora-2 (Aurora A).
Regarding `Cc1cc(Nc2cc(N3CC(C)(F)C3)nc(Sc3ccc(NC(=O)CC(F)(F)F)cc3)n2)n[nH]1` [Compound 168, N-(4-(4-(5-methyl-1H-pyrazol-3-ylamino)-6-(3-fluoro-3-methylazetidin-1-yl)pyrimidin-2-ylthio)phenyl)-3,3,3-trifluoropropanamide], the half-maximal inhibitory concentration (IC50) in the assay on Colo205 cells (incubated for 72 hours) lay within 30 to 200 nM. In addition, the inhibition constant (Ki) on JAK3 (read-out: JAK3 Ki value) is 10 to 500 nM; at Aurora-1 (Aurora B), not above 10 nM; on Aurora-2 (Aurora A) it was not above 1 nM.
For `CCC(=O)Nc1ccc(Sc2nc(Nc3cc(C)n[nH]3)cc(N3CC(OC)(C(C)(C)C)C3)n2)cc1` [Compound 90], in the assay on Colo205 cells (incubated for 96 hours), the IC50 was not above 50 nM. Also, the Ki at JAK3 is 10 to 500 nM; at Aurora-1 (Aurora B) it was not above 10 nM; on Aurora-2 (Aurora A), not above 1 nM.
For `Cc1cc(Nc2cc(N3CCC3)nc(Sc3ccc(NC(=O)Cc4ccccc4Cl)cc3)n2)[nH]n1` [Compound 57] the same measures were 50 to 1000 nM, 10 to 500 nM, not above 10 nM and not above 1 nM.
With `CC(C)=C1CN(c2cc(Nc3cc(C)n[nH]3)nc(Sc3ccc(NC(=O)CC(F)(F)F)cc3)n2)C1` [Compound 184], the IC50 in the assay with Colo205 cells (incubated for 72 hours) was in the range of 30 to 200 nM. The inhibition constant (Ki) at JAK3 is 10 to 500 nM; at Aurora-1 (Aurora B), 10 to 50 nM and < 25 nM; on Aurora-2 (Aurora A), not above 1 nM.
With `Cc1cc(Nc2cc(N3CC(F)(C4CC4)C3)nc(Sc3ccc(NC(=O)CN(C)C)cc3)n2)[nH]n1` [Compound 152], the 50% inhibitory concentration (IC50) in the assay with Colo205 cells (incubated for 72 hours) lay in the range of 30 to 200 nM. Moreover, the results for the inhibitory constant (Ki) on JAK3, on Aurora-1 (Aurora B) and on Aurora-2 (Aurora A) were 500 to 2000 nM, not above 10 nM and not above 1 nM, respectively.

The term IC50 denotes the concentration needed to halve the response being measured. By Ki is commonly meant a measure of affinity in units of concentration, obtained from inhibition or displacement.
